Reference: US20260138083A1, “CARBON DIOXIDE CONCENTRATOR” (NIPPON KAYAKU KABUSHIKI KAISHA, priority 2023, published 2026)

Assay: Oxidation-reduction resistance evaluation (cyclic voltammetry)
Type: physicochemical
Settings: 0.1 mol/L in 1.0 mol/L aqueous sodium hydrogen carbonate; glass-like carbon electrode, Ag/AgCl reference; sweep rate 100 mV/sec
Method: The fluoflavine compound represented by the formula (1-2) was dissolved in an aqueous solution (1.0 mol/L) of sodium hydrogen carbonate (manufactured by Tosoh Corporation, an industrial product) so that the concentration was 0.1 mol/L to produce an electrolyte liquid 10. The electrolyte liquid 10 was added into a sample vial for voltammetry (manufactured by BAS Inc., No. 001056), and a Teflon™ cap for voltammetry (manufactured by BAS Inc., 012671) was attached. A Pt counter electrode (manufactured by BAS Inc., No. 002222), a GCE glass-like carbon electrode (manufactured by BAS Inc., 6.0×3.0 mm, No. 002012), and a saturated KCl/silver/silver chloride reference electrode (manufactured by BAS Inc., No. 013503) were fixed with the Teflon™ cap so as to be immersed in the electrolyte liquid 10, and measurement of cyclic voltammetry was performed with a multi-electrochemical measurement system (manufactured by Hokuto Denko Co., Ltd., HZ-Pro). The potential scanning range was set to −500 mV to 700 mV, and a sweep rate was set to 100 mV/see to perform the measurement.
An electrolyte liquid 12 was prepared in the same manner except that the fluoflavine compound represented by the formula (1-2) in the oxidation-reduction resistance evaluation 1 was changed to the compound represented by the formula (1-17). […]

oxidation-reduction resistance (cyclic voltammogram, first cycle): oxidized and then decomposed
Compound: O=S(=O)([O-])c1cc(O)c(O)c(S(=O)(=O)[O-])c1.[Na+].[Na+] [formula (1-17)]
